Laboratory results as given in patent US20020198379A1, “Active compound from a sponge” (Pharma Mar, s.a., priority 1993, published 2002).
Converted amounts (≈) assume the structure as drawn.

Columns and labels:
LD50 i.p. in mice = conditions: mouse, in vivo, ip
P-388 = experiment: in vitro antitumor activity, P-388 tumour cells; format: cell-based; conditions: Mus musculus, P388
[1] = test system: human lung carcinoma A-549; experiment: in vitro antitumor activity, A-549 tumour cells; format: cell-based; conditions: A549
Protocol: (§1) The antitumor activities of this compound have been determined “in vitro” in cell cultures of human lung carcinoma A-549 and human colon carcinoma HT-29. The procedure was carried out using the methodology described by Raymond J. Bergeron et al. Biochem. Bioph. Res. Comm. 1984, 121(3), 848-854 and by Alan C. Schroeder et al. J. Med. Chem. 1981, 24 1078-1083.
(§2) The compound is active against the following tumour cells at the inhibiting concentrations noted: […]

[2] = test system: human colon carcinoma HT-29; experiment: in vitro antitumor activity, HT-29 tumour cells; format: cell-based
Protocol: as §1, §2

KB = experiment: in vitro antitumor activity, KB tumour cells; format: cell-based; conditions: Homo sapiens
S. aureus = experiment: antibiotic disk assay, S. aureus; format: cell-based; conditions: 10 μg/disk
B. subtilis = experiment: antibiotic disk assay, B. subtilis; format: cell-based; conditions: 10 μg/disk
Penicillium notatum = experiment: antifungal disk assay, Penicillium notatum; format: cell-based; conditions: Penicillium chrysogenum, 50 μg/disk
[3] = test system: mixed lymphocyte reaction (MLR); experiment: mixed lymphocyte reaction (MLR); format: cell-based; conditions: read-out: IC
[4] = test system: primary culture of murine lymphocytes; experiment: cytotoxicity assay against primary culture of murine lymphocytes; format: cell-based; conditions: Mus musculus, Lymphocyte
pH stability = format: physicochemical
Protocol: Palau'amine was isolated from the sponge as follows. Extraction of the lyophilized sponge (600 g) with MeOH (6 L) and dissolution of the water soluble residue after evaporation yielded 900 ml of an aqueous extract. [The dust from the lyophilized sponge caused a powerful allergic reaction, which entailed severe shortness of breath for about four hours; the effect largely disappeared within 24 hours]. […] Repeated LH-20 chromatography (MeOH) of the 0.5 fraction, after desalting by dissolving in EtOH, furnished essentially pure palau'amine, presumably as the hydrochloride, (14 mg, 0.01% dry weight) as an optically active, off-white amorphous powder that decomposed prior to melting. Further purification of palau'amine could be effected by HPLC [YMC aqueous C18, H2O/MeCN (90:10), 0.1% TFA].

NC[C@H]1[C@H]2CN3C(=O)c4cccn4[C@H]4N=C(N)NC43[C@H]2[C@@]2(N=C(N)N[C@@H]2O)[C@@H]1Cl (stereo partly drawn) [palau'amine]
LD50 (LD50 i.p. in mice): 13 mg/kg
IC50 (P-388): 0.1 µg/mL (≈ 0.238 µM)
IC50 [1]: 0.2 µg/mL (≈ 0.476 µM)
IC50 [2]: 2 µg/mL (≈ 4.76 µM)
IC50 (KB): 10 µg/mL (≈ 23.8 µM)
antibiotic activity (S. aureus): antibiotic activity
antibiotic activity (B. subtilis): antibiotic activity
zone of inhibition at 50 µg/disc (Penicillium notatum): 24 mm
IC50 [3]: < 0.018 µg/mL
IC50 [4]: 1.5 µg/mL (≈ 3.57 µM)
stability >pH 6.5 (pH stability; >pH 6.5): decomposes rapidly
stability in acid (pH stability; in acid): quite stable
